From patent US20250019387A1 (Frontier Medicines Corporation, priority 0001, published 2025) come the findings set out here.

Where two headings read alike, the source gives them in different places.

In this assay the target is KRAS G12C and cRAF (Ras-binding domain) interaction (Homo sapiens (Human), UniProt P01116, C118S/C51S/C80L/G12C). The assay is described as follows: Inhibition of KRAS G12C and cRAF binding (AlphaScreen). On the procedure:
Compounds were diluted in 100% DMSO and each compound concentration was spotted at 200 nl/well onto low volume, white 384 well plates. […] Plates were incubated for 19-20 hours. A mixture of RBD and the AlphaScreen streptavidin donor and glutathione acceptor beads diluted in 25 mM Hepes, pH 7.4, 150 mM NaCl, 5 mM MgCl2, 0.01% TritonX-100 and 2% DMSO was then added at 10 ul/well and incubated for 60-90 minutes before the samples were read for emission at 570 nm after excitation of the donor beads at 680 nm. All incubations were performed at room temperature. […] IC50s were determined using nonlinear regression fit of [inhibitor]vs. response (4 parameters). […]

Setting [1] is: GMPPNP-loaded KRAS G12C, 19-20 hours incubation with compound, read-out: IC50 (Inhibition of KRAS G12C and cRAF Binding).
The mark [2] stands for this setting: additional exemplary compounds, KRAS G12C and cRAF binding, read-out: RAF1 RBD IC50.

KRAS G12C and cRAF (Ras-binding domain) interaction, sequence (P01116 other isoform, or with tags, fused parts or gaps G12C/C51S/C80L/C118S): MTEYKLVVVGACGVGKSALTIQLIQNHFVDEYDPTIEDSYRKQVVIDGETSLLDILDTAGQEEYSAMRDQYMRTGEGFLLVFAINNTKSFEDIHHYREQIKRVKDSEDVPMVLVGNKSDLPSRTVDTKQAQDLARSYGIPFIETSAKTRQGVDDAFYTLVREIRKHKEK

Turning to `CN1CCC[C@H]1COc1nc2c(c(N(C)[C@@H]3CCN(C(=O)/C=C/S(C)(=O)=O)C3)n1)CCN(c1cccc3cccc(Cl)c13)C2` [Example 9, (E)-1-((R)-3-((7-(8-chloronaphthalen-1-yl)-2-(((S)-1-methylpyrrolidin-2-yl)methoxy)-5,6,7,8-tetrahydropyrido[3,4-d]pyrimidin-4-yl)(methyl)amino)pyrrolidin-1-yl)-3-(methylsulfonyl)prop-2-en-1-one], the IC50 under setting [1] is below 10 nM. As for `O=C(/C=C/CN1CCOCC1)N1[C@@H]2CC[C@H]1CN(c1nc(OC[C@@]34CCCN3C[C@H](F)C4)nc3c(F)c(-c4cccc5cccc(Cl)c45)ncc13)C2`, the IC50 under setting [2] was above 500 nM. The same measure, in the same setting: then `Cc1nccc(/C=C/C(=O)N2C[C@@H](F)[C@H](N(C)c3nc(OC[C@@]45CCCN4C[C@H](F)C5)nc4c(F)c(-c5cccc6cccc(Cl)c56)ncc34)C2)n1`, with above 500 nM; and `C=CC(=O)N1CC(CN(C)c2nc(OC[C@]34CCCN3C[C@H](F)C4)nc3c2CCN(c2cccc4cccc(Cl)c24)C3)C1`, with 100 to 500 nM. Turning to `CN1CCC[C@H]1COc1nc(N(C)[C@@H]2CCN(C(=O)/C=C/CN3CC(F)C3)C2)c2cnc(-c3cccc4cccc(Cl)c34)c(F)c2n1`, the half-inhibitory concentration (IC50) under setting [2] is above 500 nM. As for `CN(CC1CN(C(=O)/C=C/c2nc(C3COC3)no2)C1)c1nc(OCC23CCCN2CCC3)nc2c(F)c(-c3cccc4cccc(Cl)c34)ncc12` [Example 153, (E)-1-(3-(((7-(8-chloronaphthalen-1-yl)-8-fluoro-2-((tetrahydro-1H-pyrrolizin-7a(5H)-yl)methoxy)pyrido[4,3-d]pyrimidin-4-yl)(methyl)amino)methyl)azetidin-1-yl)-3-(3-(oxetan-3-yl)-1,2,4-oxadiazol-5-yl)prop-2-en-1-one], the IC50 under setting [1] was in the range of 10 to 100 nM. Same read-out and setting: as for `COC(=O)/C=C/C(=O)N1CCC(N(C)c2nc(OC[C@@H]3CCCN3C)nc3c2CCN(c2cccc4cccc(Cl)c24)C3)C1` (stereo partly drawn) [Example 6, methyl(E)-4-(3-((7-(8-chloronaphthalen-1-yl)-2-(((S)-1-methylpyrrolidin-2-yl)methoxy)-5,6,7,8-tetrahydropyrido[3,4-d]pyrimidin-4-yl)(methyl)amino)pyrrolidin-1-yl)-4-oxobut-2-enoate], the figure is 10 to 100 nM. With `C=CC(=O)N1CC[C@H]2[C@@H]1CCN2c1nc(OCC23CCCN2CCC3)nc2c1CCN(c1cccc3cccc(Cl)c13)C2`, the IC50 under setting [2] was above 500 nM. As for `C[C@H](F)c1noc(/C=C/C(=O)N2CC(CN(C)c3nc(OC[C@@]45CCCN4C[C@H](F)C5)nc4c(F)c(-c5cccc6cccc(Cl)c56)ncc34)C2)n1` [Example 76, (E)-1-(3-(((7-(8-chloronaphthalen-1-yl)-8-fluoro-2-(((2R,7aS)-2-fluorotetrahydro-1H-pyrrolizin-7a(5H)-yl)methoxy)pyrido[4,3-d]pyrimidin-4-yl)(methyl)amino)methyl)azetidin-1-yl)-3-(3-((S)-1-fluoroethyl)-1,2,4-oxadiazol-5-yl)prop-2-en-1-one], the IC50 under setting [1] is below 10 nM. The same measure, in the same setting: as for `C=CC(=O)N1CC[C@@H](N(C)c2nc(OC[C@@]34CCCN3C[C@H](O)C4)nc3c(F)c(-c4cccc5cccc(Cl)c45)ncc23)C1` [Example 137, 1-((R)-3-((7-(8-chloronaphthalen-1-yl)-8-fluoro-2-(((2R,7aS)-2-hydroxytetrahydro-1H-pyrrolizin-7a(5H)-yl)methoxy)pyrido[4,3-d]pyrimidin-4-yl)(methyl)amino)pyrrolidin-1-yl)prop-2-en-1-one], the figure is 10 to 100 nM; as for `C#Cc1c(F)ccc2cccc(-c3ncc4c(N(C)[C@@H]5CCN(C(=O)/C=C/CN6CC[C@H](OC)C6)C5)nc(OC[C@@]56CCCN5C[C@H](F)C6)nc4c3F)c12` [Example 286, (E)-1-((R)-3-((7-(8-ethynyl-7-fluoronaphthalen-1-yl)-8-fluoro-2-(((2R,7aS)-2-fluorotetrahydro-1H-pyrrolizin-7a(5H)-yl)methoxy)pyrido[4,3-d]pyrimidin-4-yl)(methyl)amino)pyrrolidin-1-yl)-4-((S)-3-methoxypyrrolidin-1-yl)but-2-en-1-one], 10 to 100 nM; as for `C=CC(=O)N1C[C@H](N(C)c2nc(OCC34CCCN3CCC4)nc3c(F)c(-c4cccc5cccc(Cl)c45)ncc23)C[C@H]1CC#N` [Example 119, 2-((2S,4R)-1-acryloyl-4-((7-(8-chloronaphthalen-1-yl)-8-fluoro-2-((tetrahydro-1H-pyrrolizin-7a(5H)-yl)methoxy)pyrido[4,3-d]pyrimidin-4-yl)(methyl)amino)pyrrolidin-2-yl)acetonitrile], 100 to 500 nM. The same measure, in the same setting: then `C=CC(=O)N1CC[C@@H](N(C)c2nc(OC[C@@]34CCCN3C[C@H](F)C4)nc3c(F)c(-c4cccc5ccc(F)c(F)c45)ncc23)C1` [Example 192, 1-((R)-3-((7-(7,8-difluoronaphthalen-1-yl)-8-fluoro-2-(((2R,7aS)-2-fluorotetrahydro-1H-pyrrolizin-7a(5H)-yl)methoxy)pyrido[4,3-d]pyrimidin-4-yl)(methyl)amino)pyrrolidin-1-yl)prop-2-en-1-one], with 10 to 100 nM. As to `C=CC(=O)CN(C)c1nc(OC[C@@H]2CCCN2C)nc2c1CCN(c1cccc3ccccc13)C2`, the IC50 under setting [2] lay in the range of 100 to 500 nM. Still for that read-out and setting: as for `C=CC(=O)N1CC[C@H](F)[C@@H](N(C)c2nc(OC[C@@]34CCCN3C[C@H](F)C4)nc3c(F)c(-c4cccc5cccc(Cl)c45)ncc23)C1`, the figure is above 500 nM; as for `C=CC(=O)N1CC2CC(Nc3nc(OC[C@@]45CCCN4C[C@H](F)C5)nc4c(F)c(-c5cccc6cccc(Cl)c56)ncc34)C1C2` (stereo partly drawn), above 500 nM; as for `Cc1nccc(/C=C/C(=O)N2CC3CC(C2)N3c2nc(OC[C@@]34CCCN3C[C@H](F)C4)nc3c(F)c(-c4cccc5cccc(Cl)c45)ncc23)n1`, above 500 nM. As to `CN1CC(=CC(=O)N2CC[C@@H](N(C)c3nc(OC[C@@]45CCCN4C[C@H](F)C5)nc4c(F)c(-c5cccc6ccc(F)c(Cl)c56)ncc34)C2)C1` [Example 300, 1-((R)-3-((7-(8-chloro-7-fluoronaphthalen-1-yl)-8-fluoro-2-(((2R,7aS)-2-fluorotetrahydro-1H-pyrrolizin-7a(5H)-yl)methoxy)pyrido[4,3-d]pyrimidin-4-yl)(methyl)amino)pyrrolidin-1-yl)-2-(1-methylazetidin-3-ylidene)ethan-1-one], under setting [1], the IC50 lay within 10 to 100 nM. As to `C=CC(=O)N1C[C@H](N(C)c2nc(OCC34CCCN3CCC4)nc3c(F)c(-c4cccc5cccc(Cl)c45)ncc23)[C@H]1C`, the IC50 under setting [2] was above 500 nM. With `C=CC(=O)N1CC(CN(C)c2nc(OC[C@@]34CCCN3C[C@@H](F)C4)nc3c2CCN(c2cccc4cccc(Cl)c24)C3)C1`, under setting [2], the IC50 was above 500 nM. Consider `C=CC(=O)N1CC(CN(C)c2nc(OC[C@@]34CCCN3C[C@H](F)C4)nc3c(F)c(-c4cc(O)cc5cccc(Cl)c45)ncc23)C1` [Example 97, 1-(3-(((7-(8-chloro-3-hydroxynaphthalen-1-yl)-8-fluoro-2-(((2R,7aS)-2-fluorotetrahydro-1H-pyrrolizin-7a(5H)-yl)methoxy)pyrido[4,3-d]pyrimidin-4-yl)(methyl)amino)methyl)azetidin-1-yl)prop-2-en-1-one], for which, under setting [1], the IC50 was below 10 nM.

Consider `Cc1nccc(/C=C/C(=O)N2C[C@H](F)[C@@H](N(C)c3nc(OC[C@@]45CCCN4C[C@H](F)C5)nc4c(F)c(-c5cccc6cccc(Cl)c56)ncc34)C2)n1` [Example 216, (E)-1-((3S,4S)-3-((7-(8-chloronaphthalen-1-yl)-8-fluoro-2-(((2R,7aS)-2-fluorotetrahydro-1H-pyrrolizin-7a(5H)-yl)methoxy)pyrido[4,3-d]pyrimidin-4-yl)(methyl)amino)-4-fluoropyrrolidin-1-yl)-3-(2-methylpyrimidin-4-yl)prop-2-en-1-one], for which the IC50 under setting [1] was 100 to 500 nM. Take `O=C(/C=C/CN1[C@@H]2CC[C@H]1COC2)N1CCN(c2nc(OC[C@@]34CCCN3C[C@H](F)C4)nc3c(F)c(-c4cccc5cccc(Cl)c45)ncc23)C2(CC2)C1`: the IC50 under setting [2] was above 500 nM. In the case of `CN(c1nc(OC[C@@]23CCCN2C[C@H](F)C3)nc2c(F)c(-c3cccc4cccc(Cl)c34)ncc12)[C@@H]1CCN(C(=O)/C=C/[C@H]2CCN2CC2COC2)C1` [Example 224, (E)-1-((R)-3-((7-(8-chloronaphthalen-1-yl)-8-fluoro-2-(((2R,7aS)-2-fluorotetrahydro-1H-pyrrolizin-7a(5H)-yl)methoxy)pyrido[4,3-d]pyrimidin-4-yl)(methyl)amino)pyrrolidin-1-yl)-3-((R)-1-(oxetan-3-ylmethyl)azetidin-2-yl)prop-2-en-1-one], the IC50 under setting [1] was in the range of 10 to 100 nM. Still for that read-out and setting: as for `CN(CC1CN(C#N)C1)c1nc(OC[C@@H]2CCCN2C)nc2c1CCN(c1cccc3cccc(Cl)c13)C2` [Example 30, (S)-3-(((7-(8-chloronaphthalen-1-yl)-2-((1-methylpyrrolidin-2-yl)methoxy)-5,6,7,8-tetrahydropyrido[3,4-d]pyrimidin-4-yl)(methyl)amino)methyl)azetidine-1-carbonitrile], the figure is above 500 nM.

Regarding `CN(c1nc(OC[C@@]23CCCN2C[C@H](F)C3)nc2c(F)c(-c3cccc4ccc(F)c(Cl)c34)ncc12)[C@@H]1CCN(C(=O)/C=C/C2CCN2)C1` (stereo partly drawn) [Example 103, (E)-3-(azetidin-2-yl)-1-((R)-3-((7-(8-chloro-7-fluoronaphthalen-1-yl)-8-fluoro-2-(((2R,7aS)-2-fluorotetrahydro-1H-pyrrolizin-7a(5H)-yl)methoxy)pyrido[4,3-d]pyrimidin-4-yl)(methyl)amino)pyrrolidin-1-yl)prop-2-en-1-one], the IC50 under setting [1] was in the range of 10 to 100 nM.

`C=CC(=O)N1CC(CN(C)c2nc(OC[C@@]34CCCN3C[C@H](F)C4)nc3c(F)c(-c4cccc5ccc(F)c(Cl)c45)ncc23)C1`: under setting [2], the IC50 lay in the range of 10 to 100 nM.
